Laboratory results published in paper PMC6222715, “Squalene Cyclases and Cycloartenol Synthases from Polystichum polyblepharum and Six Allied Ferns” (Molecules : A Journal of Synthetic Chemistry and Natural …, 2018).

Biological target: PPH (Polystichum polyblepharum, UniProt A0A3G9ELI1)
Assay: product formation in yeast cells, GC
Type: cell-based
Conditions: endogenous squalene accumulated with terbinafine; in vivo; phosphate pH 7.0

PPH, sequence (A0A3G9ELI1 1-685): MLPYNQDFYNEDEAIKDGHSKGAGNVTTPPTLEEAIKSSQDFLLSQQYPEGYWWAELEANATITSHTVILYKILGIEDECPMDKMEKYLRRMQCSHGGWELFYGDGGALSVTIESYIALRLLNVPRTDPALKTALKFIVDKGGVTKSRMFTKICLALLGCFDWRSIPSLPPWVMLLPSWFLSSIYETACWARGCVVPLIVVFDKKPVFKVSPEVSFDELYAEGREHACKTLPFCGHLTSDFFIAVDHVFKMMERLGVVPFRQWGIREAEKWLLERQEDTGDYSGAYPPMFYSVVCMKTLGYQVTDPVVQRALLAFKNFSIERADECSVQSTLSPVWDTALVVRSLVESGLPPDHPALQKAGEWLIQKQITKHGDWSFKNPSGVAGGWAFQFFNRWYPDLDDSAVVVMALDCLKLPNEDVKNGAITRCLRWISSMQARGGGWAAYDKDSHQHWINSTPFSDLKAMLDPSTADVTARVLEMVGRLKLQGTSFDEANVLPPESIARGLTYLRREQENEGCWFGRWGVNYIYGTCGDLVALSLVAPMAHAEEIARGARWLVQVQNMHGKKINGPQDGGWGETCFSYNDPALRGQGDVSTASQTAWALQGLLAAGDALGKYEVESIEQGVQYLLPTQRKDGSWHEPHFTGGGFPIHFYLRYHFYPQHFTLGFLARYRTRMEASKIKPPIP

CC(C)=CCC/C(C)=C/CC/C(C)=C/CC/C=C(\C)CC/C=C(\C)CCC=C(C)C [compound 1, squalene]
product formation in yeast cells, GC: PPH could use the accumulated endogenous squalene as an in vivo substrate
